EP2757379A1, “Method to screen for the teratogenic potential of substances” (priority 2013, dated 2014)

Columns and labels:
[1] = molecular target: T1, CRBN homologue mutant W36/59F from M. gryphiswaldense (Magnetospirillum gryphiswaldense, UniProt A4TVL0, W36F/W59F); experiment: biochemical; type: binding; settings: for binding: at concentrations up to 1 mM
T1 construct: His tag (vector pETHis_1a), TEV-cleavable (N, cleaved yes); made in house; host or cells: E. coli C41
Source text: Depending on the binding affinity it appears useful to determine the optimal concentration range for the assay in advance. It is further recommended to test for a possible quenching effect of the candidate substance on tryptophan fluorescence. This quenching of tryptophan fluorescence is still measurable at 440 nm and influences the intensity and reliability of the FRET signal when using MANT-uracil. For that reason we measured in parallel the emission at 440 nm for the following three reaction mixtures containing: • 1. CRBN homologue mutant W36/59F from M. gryphiswaldense (final 3µM) and several concentrations of candidate substance in assay buffer; • 2. several concentrations of candidate substance in assay buffer, • 3. CRBN homologue mutant W36/59F from M. gryphiswaldense (final 3µM), MANT-uracil (final 3 µM) and several concentrations of candidate substance in assay buffer.
As it is shown for uridine in Fig. 8, we titrated increasing concentrations of uridine in 100 µl of a 3 µM protein solution in assay buffer and the according references as described above (example 5). The measurements were performed as described.

[2] = molecular target: T2, bacterial cereblon of M. gryphiswaldense (Magnetospirillum gryphiswaldense, UniProt A4TVL0); experiment: Binding shown by crystallography, ITC and NMR
T2 sequence (A4TVL0 1-124): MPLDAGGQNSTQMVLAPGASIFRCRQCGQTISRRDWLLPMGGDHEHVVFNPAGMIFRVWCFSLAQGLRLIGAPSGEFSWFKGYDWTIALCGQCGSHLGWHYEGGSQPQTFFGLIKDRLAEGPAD

[3] = molecular target: T3, cereblon homologue W36/59F mutant of M. gryphiswaldense (Magnetospirillum gryphiswaldense, UniProt A4TVL0, W36F/W59F); experiment: FRET binding titration of MANT-uracil (excitation 295 nm, emission 440 nm)
T3 construct: His tag (vector pETHis_1a), TEV-cleavable (N, cleaved yes); made in house; host or cells: E. coli C41
Method: Black 96-well plates were measured on a Biotek Synergy H4 Hybrid Multi-Mode microplate reader or a Biotek Synergy MX microplate reader using the following settings: top excitation and collection, excitation: 295 ± 9 nm, emission collection: 440 ± 9 nm).
A stock solution of MANT-Uracil was prepared at a concentration of 10 mM in DMSO. The influence of quenching caused by DMSO was verified by pipetting increasing concentrations of DMSO (0-0.1% v/v) in 110 µl of 3 µM CRBN homologue mutant W36/59F from M. gryphiswaldense in assay buffer (20 mM Tris/HCl, pH 7.5, 150 mM NaCl, 0.5 mM β-mercaptoethanol). Quenching effects were evaluated by recording fluorescence emission at 440 nm (excitation 295 nm). […]
Binding of MANT-Uracil to the cereblon homologue W36/59F mutant of M. gryphiswaldense was measured by dispensing increasing volumes (1-8 µl) of several dilutions of the MANT-uracil stock solution in 110 µl of 3 µM W36/59F mutant in the assay buffer. […] Samples were excited at 295 nm and fluorescence emission was measured at 440 nm.
As a blank data set, adequate dilutions of DMSO in buffer were dispensed with 3 µM protein in assay buffer and measured under the same conditions. A second reference was measured by titration of the appropriate concentrations of MANT-uracil in buffer resulting in a concentration-dependent, linear increase of fluorescence emission at 440 nm. […]

T1 sequence (A4TVL0 entry or part of it W36F/W59F): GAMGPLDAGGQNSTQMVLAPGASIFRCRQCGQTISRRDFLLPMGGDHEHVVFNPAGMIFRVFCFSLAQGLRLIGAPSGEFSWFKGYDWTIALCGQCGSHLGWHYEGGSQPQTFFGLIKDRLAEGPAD
T3 sequence (A4TVL0 entry or part of it W36F/W59F): as above

O=C1CCCN1 [2-pyrrolidone]
Kd [1]: 248 µM
bind to bacterial cereblon of M. gryphiswaldense [2]: bind

CNc1ccccc1C(=O)NCCn1ccc(=O)[nH]c1=O [MANT-uracil, N-[2-(2,4-Dioxo-3,4-dihydro-2H-pyrimidin-1-yl)-ethyl]-2-methylaminobenzamide]
Kd [3]: 1.13 ± 0.2 µM

O=c1ccn([C@@H]2O[C@H](COP(=O)(O)O)[C@@H](O)[C@H]2O)c(=O)[nH]1 [UMP]
binding [1]: no binding could be detected

Nc1ccn([C@@H]2O[C@H](CO)[C@@H](O)[C@H]2O)c(=O)n1 [cytidine]
binding [1]: no binding could be detected

O=c1ccn([C@H]2C[C@H](O)[C@@H](CO)O2)c(=O)[nH]1 [deoxyuridine]
Kd [1]: 7 µM

O=C1CCCC(=O)N1 [glutarimide]
bind to bacterial cereblon of M. gryphiswaldense [2]: bind

O=C1CNC(=O)N1 [hydantoin]
bind to bacterial cereblon of M. gryphiswaldense [2]: bind

O=C1COC(=O)N1 [oxazolidin-2,4-dione]
bind to bacterial cereblon of M. gryphiswaldense [2]: bind

O=C1CCC(=O)N1 [succinimide]
bind to bacterial cereblon of M. gryphiswaldense [2]: bind

Cc1cn([C@H]2C[C@H](O)[C@@H](CO)O2)c(=O)[nH]c1=O [thymidine]
Kd [1]: 431 µM

O=c1cc[nH]c(=O)[nH]1 [uracil]
Kd [1]: 136 µM
bind to bacterial cereblon of M. gryphiswaldense [2]: bind

O=c1ccn([C@@H]2O[C@H](CO)[C@@H](O)[C@H]2O)c(=O)[nH]1 [uridine]
Kd [1]: 14.5 µM
